For 26 compounds, IC50 results are on record in US11845760B2, “PRMT5 inhibitors” (AMGEN INC., priority 2020, dated 2023).

One test relates to HCT116 MTAP null cells. As to the kind of experiment: HCT116 MTAP null cell line proliferation (CellTiter-Glo cell viability, 6 days). In kind it is cell-based. To be noted: HCT116-MTAP null, 144 h, HCT116 MTAP null cells, 6 days of treatment, CellTiter-Glo cell viability; read-out: HCT-116 MTAP null IC50. Summed up:
(§1)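 Isogenic HCT116 pair (both MTAP alleles knocked out vs parent) in RPMI 1640 + 10% FBS, seeded overnight at 37° C, 5% CO2, then exposed 6 days to 8- or 9-point 1:3 dilutions from 1 or 10 μM. CellTiter-Glo luminescence; IC50 from sigmoidal fit, Hill slope fixed −1, top 100%, or 4-parameter logistic.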
A general note: In ATP-based viability assays light output follows the ATP content of the culture.

The test system of another test is HCT116 WT cells. The experiment in a line: HCT116 WT cell line proliferation (CellTiter-Glo cell viability, 6 days). The test is classed as cell-based. To be noted: Homo sapiens, HCT-116, 144 h, HCT116 WT (parent) cells, 6 days of treatment, CellTiter-Glo cell viability; read-out: HCT-116 WT IC50. In a few lines:
as §1

A word on the IC50: it is the concentration that gives 50% inhibition. Turning to `Cn1ncc2c(N)nc3cnc(C(=O)N4CCOC[C@@H]4c4ccc(OC(F)F)nn4)cc3c21` [Example 451, (4-amino-1-methyl-1H-pyrazolo[4,3-c][1,7]naphthyridin-8-yl)((3S)-3-(6-(difluoromethoxy)-3-pyridazinyl)-4-morpholinyl)methanone], the 50% inhibitory concentration (IC50) in the test on HCT116 MTAP null cells was found to be 162 nM; in the test on HCT116 WT cells, 15400 nM.
Take `Nc1nc2ccc(C(=O)N3CCOC[C@@H]3c3ccc(OC(F)(F)F)cc3)cc2c2c1COCC2` [Example 484, (5-amino-2,4-dihydro-1H-pyrano[3,4-c]quinolin-9-yl)-[(3S)-3-[4-(trifluoromethoxy)phenyl]morpholin-4-yl]methanone]: the IC50 with HCT116 MTAP null cells was 656 nM; with HCT116 WT cells, more than 10000 nM.
Turning to `Nc1nc2cnc(C(=O)N3CCOC[C@@H]3c3ccc(C(F)(F)F)cc3)cc2c2cnccc12` [Example 501, (5-aminopyrido[4,3-c][1,7]naphthyridin-9-yl)((3S)-3-(4-(trifluoromethyl)phenyl)-4-morpholinyl)methanone], the concentration for half-maximal inhibition (IC50) in the test on HCT116 MTAP null cells worked out at 37 nM; with HCT116 WT cells, 689 nM.
Consider `Nc1nc2ccc(C(=O)N3CCOC[C@@H]3c3ccc(C(F)(F)F)cc3)cc2c2cncnc12` [Example 502, (5-aminopyrimido[4,5-c]quinolin-9-yl)((3S)-3-(4-(trifluoromethyl)phenyl)-4-morpholinyl)methanone], for which the figures for the half-maximal inhibitory concentration (IC50) in the test with HCT116 MTAP null cells and in the test on HCT116 WT cells were 819 nM and 11600 nM, respectively.
The corresponding values for `Nc1nc2ccc(C(=O)N3CCOC[C@@H]3c3ccc(C(F)(F)F)cc3)cc2c2cnccc12` [Example 503, (5-aminobenzo[c][2,6]naphthyridin-9-yl)((3S)-3-(4-(trifluoromethyl)phenyl)-4-morpholinyl)methanone] are 39 nM and 867 nM.
For the compound `Nc1nc2cnc(C(=O)N3CCOC[C@@H]3c3ccc(C(F)(F)F)cc3)cc2c2cncnc12` [Example 504, (5-aminopyrimido[4,5-c][1,7]naphthyridin-9-yl)((3S)-3-(4-(trifluoromethyl)phenyl)-4-morpholinyl)methanone], the figures for the IC50 with HCT116 MTAP null cells and in the test with HCT116 WT cells were 810 nM and 6380 nM, respectively.
`Nc1nc2cnc(C(=O)N3CCOC[C@@H]3c3ccc(OC(F)(F)F)cc3)cc2c2c1COC2` [Example 506, (4-amino-1,3-dihydrofuro[3,4-c][1,7]naphthyridin-8-yl)-[(3S)-3-[4-(trifluoromethoxy)phenyl]morpholin-4-yl]methanone]: the results for the half-maximal inhibitory concentration (IC50) in the test with HCT116 MTAP null cells and in the test on HCT116 WT cells were 61 nM and 2530 nM, respectively.
Turning to `Nc1nc2ncc(C(=O)N3CCOC[C@@H]3c3ccc(OC(F)(F)F)cc3)cc2c2c1COC2` [Example 507, (4-amino-1,3-dihydrofuro[3,4-c][1,8]naphthyridin-8-yl)-[(3S)-3-[4-(trifluoromethoxy)phenyl]morpholin-4-yl]methanone], the 50% inhibitory concentration (IC50) is 843 nM in the test on HCT116 MTAP null cells and more than 10000 nM with HCT116 WT cells.
Take `Nc1nc2ccc(C(=O)N3CCOC[C@@H]3c3ccc(C(F)(F)C(F)(F)F)cc3)cc2c2c1COC2` [Example 510, (4-amino-1,3-dihydrofuro[3,4-c]quinolin-8-yl)((3S)-3-(4-(pentafluoroethyl)phenyl)-4-morpholinyl)methanone]: the concentration for half-maximal inhibition (IC50) with HCT116 MTAP null cells stood at 43 nM; in the test with HCT116 WT cells, 1580 nM.
Turning to `Nc1nc2cnc(C(=O)N3CCOC[C@@H]3c3ccc(C(F)(F)C(F)(F)F)cc3)cc2c2c1COC2` [Example 511], the IC50 in the test on HCT116 MTAP null cells was found to be 43 nM; in the test with HCT116 WT cells it was 1130 nM.
The matching figures for `Nc1nc2cnc(C(=O)N3CCOC[C@@H]3c3ccc(OC(F)(F)F)cc3)cc2c2c1CCC2` [Example 514, (6-amino-8,9-dihydro-7H-cyclopenta[c][1,7]naphthyridin-2-yl)((3S)-3-(4-(trifluoromethoxy)phenyl)-4-morpholinyl)methanone]: 210 nM and 2590 nM.
With `C[C@@H]1COC[C@H](c2ccc(C(F)(F)F)cn2)N1C(=O)c1cc2c3c(c(N)nc2cn1)CCC3` [Example 515, (6-amino-8,9-dihydro-7H-cyclopenta[c][1,7]naphthyridin-2-yl)((3R,5S)-3-methyl-5-(5-(trifluoromethyl)-2-pyridinyl)-4-morpholinyl)methanone], the concentration for half-maximal inhibition (IC50) in the test on HCT116 MTAP null cells was 47 nM; with HCT116 WT cells, 541 nM.
For `Nc1nc2cnc(C(=O)N3CCOC[C@@H]3c3ccc(OC(F)F)cn3)cc2c2c1COC2` [Example 516, (4-amino-1,3-dihydrofuro[3,4-c][1,7]naphthyridin-8-yl)((3S)-3-(5-(difluoromethoxy)-2-pyridinyl)-4-morpholinyl)methanone], the concentration for half-maximal inhibition (IC50) was determined as 211 nM with HCT116 MTAP null cells and 9120 nM with HCT116 WT cells.
On to `C[C@@H]1COC[C@H](c2ccc(C(F)(F)F)cn2)N1C(=O)c1cc2c(cc1F)nc(N)c1c2cnn1C` [Example 517, (4-amino-7-fluoro-3-methyl-3H-pyrazolo[3,4-c]quinolin-8-yl)((3R,5S)-3-methyl-5-(5-(trifluoromethyl)-2-pyridinyl)-4-morpholinyl)methanone], for which the 50% inhibitory concentration (IC50) was 8 nM with HCT116 MTAP null cells and 151 nM in the test with HCT116 WT cells.
The matching figures for `Cn1ncc2c3cc(C(=O)N4CCOC[C@@H]4c4ccc(C(F)(F)F)cc4)c(F)cc3nc(N)c21` [Example 518, (4-amino-7-fluoro-3-methyl-3H-pyrazolo[3,4-c]quinolin-8-yl)((3S)-3-(4-(trifluoromethyl)phenyl)-4-morpholinyl)methanone]: 86 nM and 4690 nM.
In the case of `C[C@@H]1COC[C@H](c2ccc(C(F)(F)F)cn2)N1C(=O)c1cc2c(cc1F)nc(N)c1cnn(C)c12` [Example 519, (4-amino-7-fluoro-1-methyl-1H-pyrazolo[4,3-c]quinolin-8-yl)((3R,5S)-3-methyl-5-(5-(trifluoromethyl)-2-pyridinyl)-4-morpholinyl)methanone], the concentration for half-maximal inhibition (IC50) turned out to be 4 nM with HCT116 MTAP null cells and 26 nM in the test with HCT116 WT cells.
As for `C[C@@H]1COC[C@H](c2ccc(C(F)(F)F)cn2)N1C(=O)c1cc2c(cn1)nc(N)c1cnn(C)c12` [Example 520, (4-amino-1-methyl-1H-pyrazolo[4,3-c][1,7]naphthyridin-8-yl)((3R,5S)-3-methyl-5-(5-(trifluoromethyl)-2-pyridinyl)-4-morpholinyl)methanone], the IC50 with HCT116 MTAP null cells came to 18 nM; in the test on HCT116 WT cells, 120 nM.
`Cn1ncc2c(N)nc3ccc(C(=O)N4CCOC[C@@H]4c4ccc(C(F)(F)F)cc4)cc3c21` [Example 521, (4-amino-1-methyl-1H-pyrazolo[4,3-c]quinolin-8-yl)((3S)-3-(4-(trifluoromethyl)phenyl)-4-morpholinyl)methanone]: the IC50 in the test on HCT116 MTAP null cells turned out to be 30 nM; with HCT116 WT cells, 2080 nM.
On to `C[C@@H]1COC[C@H](c2ccc(C(F)(F)F)cn2)N1C(=O)c1cc2c3c(c(N)nc2cn1)COC3` [Example 522, (4-amino-1,3-dihydrofuro[3,4-c][1,7]naphthyridin-8-yl)((3R,5S)-3-methyl-5-(5-(trifluoromethyl)-2-pyridinyl)-4-morpholinyl)methanone], for which the concentration for half-maximal inhibition (IC50) in the test on HCT116 MTAP null cells worked out at 30 nM; in the test with HCT116 WT cells, 509 nM.
In the case of `C[C@@H]1COC[C@H](c2ccc(C(F)(F)F)cc2)N1C(=O)c1cc2c3c(c(N)nc2cn1)COC3` [Example 523, (4-amino-1,3-dihydrofuro[3,4-c][1,7]naphthyridin-8-yl)((3R,5S)-3-methyl-5-(4-(trifluoromethyl)phenyl)-4-morpholinyl)methanone], the concentration for half-maximal inhibition (IC50) in the test on HCT116 MTAP null cells was 9 nM; in the test on HCT116 WT cells it was 213 nM.
As for `C[C@@H]1COC[C@H](c2ccc(C(F)(F)F)nc2)N1C(=O)c1cc2c3c(c(N)nc2cn1)COC3` [Example 524, (4-amino-1,3-dihydrofuro[3,4-c][1,7]naphthyridin-8-yl)((3R,5S)-3-methyl-5-(6-(trifluoromethyl)-3-pyridinyl)-4-morpholinyl)methanone], the 50% inhibitory concentration (IC50) came out at 31 nM in the test with HCT116 MTAP null cells and 1240 nM in the test with HCT116 WT cells.
`C[C@@H]1COC[C@H](c2ccc(OC(F)(F)F)cc2)N1C(=O)c1cc2c3c(c(N)nc2cn1)COC3` [Example 525, (4-amino-1,3-dihydrofuro[3,4-c][1,7]naphthyridin-8-yl)((3R,5S)-3-methyl-5-(4-(trifluoromethoxy)phenyl)-4-morpholinyl)methanone]: the IC50 with HCT116 MTAP null cells was 19 nM; in the test with HCT116 WT cells, 372 nM.
As to `C[C@@H]1COC[C@H](c2ccc(C(F)(F)F)cc2)N1C(=O)c1cc2c3c(c(N)nc2cc1F)COC3` [Example 526, (4-amino-7-fluoro-1,3-dihydrofuro[3,4-c]quinolin-8-yl)((3R,5S)-3-methyl-5-(4-(trifluoromethyl)phenyl)-4-morpholinyl)methanone], the IC50 in the test on HCT116 MTAP null cells was determined as 6 nM; with HCT116 WT cells it was 120 nM.
For the compound `C[C@@H]1COC[C@H](c2ccc(C(F)(F)F)cc2)N1C(=O)c1ccc2nc(N)c3c(c2c1)COC3` [Example 527, (4-amino-1,3-dihydrofuro[3,4-c]quinolin-8-yl)((3R,5S)-3-methyl-5-(4-(trifluoromethyl)phenyl)-4-morpholinyl)methanone], the IC50 in the test on HCT116 MTAP null cells is 27 nM; in the test with HCT116 WT cells, 503 nM.
As to `Nc1nc2cc(F)c(C(=O)N3CCOC[C@@H]3c3ccc(C(F)(F)F)cc3)cc2c2c1COC2` [Example 528, (4-amino-7-fluoro-1,3-dihydrofuro[3,4-c]quinolin-8-yl)((3S)-3-(4-(trifluoromethyl)phenyl)-4-morpholinyl)methanone], the half-inhibitory concentration (IC50) in the test on HCT116 MTAP null cells came out at 29 nM; with HCT116 WT cells, 1210 nM.
In the case of `Nc1nc2cc(Cl)c(C(=O)N3CCOC[C@@H]3c3ccc(C(F)(F)F)cc3)cc2c2c1COC2` [Example 529, (4-amino-7-chloro-1,3-dihydrofuro[3,4-c]quinolin-8-yl)((3S)-3-(4-(trifluoromethyl)phenyl)-4-morpholinyl)methanone], the IC50 in the test on HCT116 MTAP null cells was 18 nM; with HCT116 WT cells, 502 nM.
